Measurements from ChEMBL document CHEMBL1124082, “Synthesis, intramolecular hydrogen bonding, and biochemical studies of clitocine, a naturally occurring exocyclic amino nucleoside” (J Med Chem, 1988).

Columns and labels:
Adenosine kinase [1] = biological target: T1, Adenosine kinase (Homo sapiens, UniProt P55263); assay: Binding affinity towards adenosine kinase
Adenosine kinase [2] = biological target: T1, Adenosine kinase; assay: Inhibition of adenosine kinase from undialyzed W1-L2 lysate (0-50 uM)
L1210 = assay: In vitro inhibition of L1210 cells; type: functional; conditions: Mus musculus, read-out: ID50 (the source's name)
[3] = Inhibition of growth of human B lymphoblast derived W1-L2 cells; type: functional; conditions: WIL2, read-out: ID50 (the source's name)

T1 sequence (P55263 whole entry): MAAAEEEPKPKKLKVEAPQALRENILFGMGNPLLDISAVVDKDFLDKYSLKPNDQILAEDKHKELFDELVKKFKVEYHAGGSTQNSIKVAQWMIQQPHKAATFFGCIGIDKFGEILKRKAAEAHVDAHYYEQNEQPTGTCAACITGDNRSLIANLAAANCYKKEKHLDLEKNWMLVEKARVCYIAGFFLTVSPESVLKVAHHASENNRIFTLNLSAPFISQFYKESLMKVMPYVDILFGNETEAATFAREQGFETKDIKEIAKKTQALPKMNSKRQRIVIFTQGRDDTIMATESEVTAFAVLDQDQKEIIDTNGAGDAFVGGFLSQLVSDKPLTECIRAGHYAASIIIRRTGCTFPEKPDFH

Ki (Adenosine kinase [1]): 300 nM | Ki (Adenosine kinase [2]): 3000 nM | IC50 (L1210): 30 nM
SMILES: Nc1ncnc(N[C@@H]2O[C@H](CO)[C@@H](O)[C@H]2O)c1[N+](=O)[O-]
IC50 [3]: 30 nM
